Reference: US4385057A, “Diphenylbutyl-piperazinecarboxamides in pharmaceutical compositions and methods” (priority 1978, dated 1983)
Where two headings read alike, the source gives them in different places.

What was measured:
[1] = system: exploratory activity / climbing of mice; assay: Climbing (inability to ascend net-ladder); assay type: in vivo, mouse (NMRI female); conditions: Mus musculus, sc, read-out: ED50, mg/kg, s.c. (dose rendering 50% of the mice incapable of entering the top of the net-ladder)
Method: When mice are placed in a new area, they explore the whole available territory. Minor and major tranquillizers inhibit the exploratory activity. The sedative effect of drugs is evaluated by the inability of mice to ascend a netladder. The process of climbing is very complex and consists of psychical and taxic (motor performance) components. For the experiments a transparent cage (36×27×23 cm) and a net-ladder (35×6 cm) standing with an inclination of 45° was used. (P. Kneip. Arch. Int. Pharmacodyn. 76, 238 (1960); F. Sandberg, Arzneimittelforsch. 4, 203 (1959)).
The test compound is administered s.c. (10 ml/kg) to 6 NMRI female mice per dose. The mice are marked with a number code from 1 to 6, in order to recognize each individual mouse. In 25 minutes, 55 minutes, 1 h 55 minutes and 3 h 55 minutes time after the administration the mice are placed in the above-mentioned cage for 10 minutes. The number of mice ascending the top of the net-ladder is noted. Other behavioural items are also noted. The ED50 (mg/kg) reported is the dose rendering 50% of the mice incapable of entering the top of the net-ladder 0.5 h after the administration.

[2] = system: isolation-induced aggressive behaviour of male mice; assay: Isolation-induced aggressive behaviour; assay type: in vivo, mouse (male NMR mice); conditions: Mus musculus, sc, read-out: ED50, mg/kg, sc (dose inhibiting aggressive behaviour among 50 percent of the pairs)
Excerpt: Male mice subjected to prolonged isolation develop aggressive behavior against each other when paired. […] The clinical correlation of this test indicates tranquillizing and anxiolytic activities as well as antiaggressive properties as such (R. L. Duncan et al., J. Med. Chem. 13, 1 (1970)).
This type of aggression is interesting because it is known that this kind of emotional behaviour might be located in limbic structures in the brain (P. D. Mac Lean, Psychosom. Med. 11, 338 (1949)).
Every week 24 male NMR mice, weighing 20-22 g, were isolated in Makrolon cages for three weeks with diet and water ad libitum. A piece of cardboard was placed between the cages to prevent visual contact.
To test aggressiveness the mice were paired in a neutral area, a beaker (14 cm high and diameter 14 cm). A pair is considered aggressive if both the animals show clear signs of fighting within 5 min. This fighting is characterized by biting and vocalization. As soon as fighting is seen, the mice are separated and brought to their home cage. […] Animals showing no aggression are discarded. […] The test substance is administered s.c. (0.2-0.4 ml/20 g). The mice are paired 1/2 h, 1 h, 2 h, 4 h, 6 h and 24 h after the injection for trials of 5 min. duration.
The ED50 -value (mg/kg) reported is the dose inhibiting aggressive behaviour among 50 percent of the pairs 1.0 hour after drug administration.

[3] = system: mouse-killing behaviour of rats; assay: Spontaneous mouse-killing (muricide) by rats; assay type: in vivo, rat (male hooded Long-Evans); conditions: Rattus norvegicus, sc
Excerpt: For the purpose of detecting new psychotropic substances with antiaggressive properties, pharmacologist have used several different models. […] This form of aggressive behaviour which is considered to be of predatory nature, is physiologically and topographically different from other forms of aggression (M. O'Boyle, Psychol. Bull. 81, 261 (1974)). Mousekilling is a spontaneous behaviour in some rat strains e.g. male hooded Long-Evans rats. Male hooded Long-Evans rats placed in individual cages were used. By testing a number of rats, a colony of rats was obtained that killed a mouse whenever introduced into the rats' cage, by biting the mouse through the cervical spinal cord. Each rat was tested for mouse-killing behaviour (killing a mouse within 5 minutes) prior to each experiment, thus serving as its own positive control. For each dose level 6 positive rats were selected and the test substance was administered by subcutaneous injection. Doses were selected to form a dose-response curve and the mean effective dose (ED50, mg/kg) was calculated by means of linear regression. The rats were tested at 1, and 2 hours after being injected subcutaneously.

[4] = system: acetic acid induced writhing; assay: Writhing test (analgetic properties); assay type: in vivo, mouse (NMRI female); conditions: Mus musculus, sc, 20 min before acetic acid i.p.; read-out: ED50, mg/kg, s.c. (dose blocking the writhing behaviour in 50% of the animals)
Method: The writhing test is a frequently used test of analgetic properties (L. B. Witkin et al., J. Pharmacol. Exp. Ther. 133, 400 (1961)). If acetic acid (0.5%, 15 ml/kg) is injected intraperitoneally in mice (NMRI) they will without exception develop a writhing behaviour characterized by stretching their hind legs. The drugs to be tested were administered subcutaneously to 6 female mice at each dose 20 min. before the injection of the acetic acid. After 10 min. the behaviour of the mice was studied in 5 min. The ED50 value is the dose blocking the writhing behaviour in 50% of the animals during the 5 min. study period. [drawing 13]

[5] = system: pigs; assay: Social parameters and aggression of pigs in stress situations; assay type: in vivo, pig; conditions: in words; for stabilization of social parameters: aggression, hierarchy, interaction, cleanliness, feeding behaviour; for effect on aggression: stress situations
Excerpt: Among domestic animals pigs are exposed to a wide variety of stresses, e.g. after weaning, at transports and at regrouping of animals. By studying social parameters such as aggression, hierarchy, interaction, cleanliness in their living space and feeding behaviour in different stress situations the new compounds of formula I have been compared with established drugs, e.g. azaperone and acepromazine, now used in handling pigs.

[6] = system: guinea pig papillary muscle; conditions: cited from earlier work
[7] = system: central 5HT receptors; conditions: established antidepressant drugs; in words; cited from earlier work
[8] = system: thymus; assay: Swim-test (stress-induced thymolymphatic involution); assay type: in vivo, mouse (NMRI female); conditions: for protecting capacity against the induced stress: in words; for Relative weight of thymus, ×100: once 10 min before first swim-test, saline stressed 36, unstressed 66, Wilcoxon's ranking test
Excerpt: If an animal is in a stage of exhaustion the rise in glucocorticoids induced by the stress causes thymolymphatic involution and elicites a characteristic change in blood count. […] In the experiments NMRI female mice were used with well-documented thymic glands. In the experiments the mice were divided in four groups. In the first group the mice were allowed to stay in their home cages all the time. In the second group saline-treated mice were repeatedly forced to swim in water at a temperature of +5° C. for 1 min. once every hour, 6 times per day for four days. In the third group the mice were pre-treated once with the test compound 10 min. before the first swim-test, otherwise the mice were manipulated in the same way as in the second group. In the fourth group the mice were adrenalectomized three days before the start of the swim tests. Otherwise also this group was manipulated as the second group. All mice were killed on the 5th day of the experiment and the weight of the thymic gland registered.

[9] = system: gastric ulcers in rats; assay: Stress-induced ulcers (restraint and cold); assay type: in vivo, rat (female Sprague Dawley); conditions: 15 min before cold and restraint
Excerpt: A number of methods have been described for studies of somatic expression of adverse stimulation in experimental animals. One method is based upon the development of gastric lesions in rat subjected to some form of environmental stress. The most frequently used mode of stressing the rats is by simple physical restraint. In the experiments to be described rats were immobilized in rigid plastic devices. As repeatedly shown the restraint and the exposure to cold, act synergistically to produce gastric ulcers. The method for production of stress ulcus in rats has been described earlier (R. J. Levine In: C. J. Pfeiffer ed., Peptic Ulcer, Scand. Univ. Books, Copenhagen 1971). The animals in the experiments, female Sprague Dawley rats 180-230 g, have been kept immobilized for three hours at +5° C. For 24 hours prior to restraint the animals furthermore were not allowed to ingest anything but tap water. In all experiments the rats were divided in three groups. In the first group all animals were pre-treated only with saline 15 min. before the exposure to the stressors. […] The third group consisted always of the compound to be tested in this model. The number and severity of gastric erosions in the opened stomach of controls and drug-pre-treated animals were scored. The average number of gastric ulcers in the control rats were put equal to a hundred percent. In table VI the potency of some compounds to protect against gastric ulcers in the described experiments is reported. All pre-treatments were always made 15 min. before the exposure to cold and restraint.

[10] = system: isolation-induced aggressive behaviour of male mice; conditions: background on clinically used drugs; in words; cited from earlier work
[11] = Geller conflict test; assay type: in vivo; conditions: s.c., ** (Student's t-test)
Excerpt: The Geller conflict test for anxiolytics clearly meets the requirements for a standard model and is most useful operant paradigm in screening for new drugs. (I. Geller and J. Seifler, Psychopharmacologia l, 482 (1960); B. Blackwell and W. E. Whitehead, In: A. Sudilovsky, S. Gershorn and B. Beer, eds. Predictability in Psychopharmacology: Preclinical and Clinical Correlations. Raven Press New York pp. 121, (1975)).

[12] = system: guinea pig papillary muscle; assay: Prolongation of effective refractory period in guinea pig papillary muscle; conditions: 10^-7 M; pacing frequencies 1, 2 and 4 Hz
[13] = 1.0 hour after drug administration
[14] = read-out: ED50, mg/kg, s.c., 2 hrs after injection
[15] = 1 hr after injection, read-out: ED50, mg/kg, s.c., 1 hr

Molecule CNC(=O)N1C[C@H](C)N(CCCC(c2ccc(F)cc2)c2ccc(F)cc2)C[C@H]1C (relative stereo) [III, trans-2,5-Dimethyl-N'-methyl-4-[4,4-(di-p-fluorophenyl)butyl]-1-piperazinecarboxamide] has an ED50 ([1]; 0.5 h after administration) of 1 mg/kg, an ED50 [2, 13] of 2.6 mg/kg and an ED50 [3, 14] of 2.9 mg/kg. It also gave an ED50 [3, 15] of 1.9 mg/kg and an ED50 [4] of 1 mg/kg.

For CC(=O)c1ccc2c(c1)N(CCCN(C)C)c1ccccc1S2 [Acepromazine], the “stabilization of social parameters” value [5] was “did not improve any social parameter” and the effect on aggression [5] was “blocked aggression by an unspecific mechanism of sedation”.

In the case of CCCCc1oc2ccccc2c1C(=O)c1cc(I)c(OCCN(CC)CC)c(I)c1 [Amiodarone], the “change of the effective refractory period” value (from here on “change”) ([6]; 10^-5 M) is listed as 35 ms.

For CN(C)CCC=C1c2ccccc2CCc2ccccc21 [Amitriptyline, reference compound], the “blockade of central 5HT receptors” value [7] is listed as “potent blockers”, the ED50 [2, 13] is listed as 5 mg/kg and the ED50 [3, 14] is listed as 6.4 mg/kg. The ED50 [3, 15] was > 10 mg/kg.

For O=C(CCCN1CCN(c2ccccn2)CC1)c1ccc(F)cc1 [Azaperone], the “protecting capacity against the induced stress” value (“protecting capacity” for short) [8] was “less effective”, the “Relative weight of thymus, ×100” value ([8]; pre-treatment dose 1.0 mg/kg) was 48 and the “Inhibition, % (gastric ulcers)” value ([9]; pre-treatment dose 1.0 mg/kg) was 0%. The “stabilization of social parameters” value [5] was “did not improve any social parameter” and the effect on aggression [5] was “blocked aggression by an unspecific mechanism of sedation”.

For CN(C)CCCN1c2ccccc2Sc2ccc(Cl)cc21 [Chlorpromazine, reference compound], the ED50 ([1]; 0.5 h) was 2 mg/kg and the ED50 ([2]; 1 h) was 1.4 mg/kg.

In the case of CN1C(=O)CN=C(c2ccccc2)c2cc(Cl)ccc21 [Diazepam, reference compound], the “effect on isolation-induced aggressive behaviour” value [10] is given as “active” and the “Percent shocks compared to controls” value ([11]; dose 1.0 mg/kg) is given as 240%.

Molecule O=C(CCCN1CCC(O)(c2ccc(Cl)cc2)CC1)c1ccc(F)cc1 [Haloperidol, reference compound] has an ED50 ([1]; 0.5 h) of 1.3 mg/kg.

In the case of CNC(=O)N1CCN(CCCC(c2ccc(F)cc2)c2ccc(F)cc2)CC1 [I, N'-Methyl-4-[4,4-(di-p-fluorophenyl)butyl]-1-piperazinecarboxamide], the ED50 ([1]; 0.5 h after administration) was 1.5 mg/kg, the ED50 [2, 13] was 4.8 mg/kg and the ED50 [3, 14] was 0.7 mg/kg. For the same molecule, the ED50 [3, 15] was 0.5 mg/kg and the ED50 [4] was 0.5 mg/kg.

For CCNC(=O)N1CCN(CCCC(c2ccc(F)cc2)c2ccc(F)cc2)CC1 [II, N'-Ethyl-4-[4,4-(di-p-fluorophenyl)butyl]-1-piperazinecarboxamide], the “Percent shocks compared to controls” value ([11]; dose 0.5 mg/kg) was 250%, the “protecting capacity” value [8] was “most protecting capacity” and the “Relative weight of thymus, ×100” value ([8]; pre-treatment dose 1.0 mg/kg) was 50. For the same molecule, the ED50 ([1]; 0.5 h after administration) was 0.7 mg/kg, the “Inhibition, % (gastric ulcers)” value ([9]; pre-treatment dose 1.0 mg/kg) was 43% and the ED50 [2, 13] was 1.3 mg/kg. The ED50 [3, 14] was 1.9 mg/kg, the ED50 [3, 15] was 0.4 mg/kg and the ED50 [4] was 0.7 mg/kg. The “prolongation of the effective refractory period” value [12] was 30 ms.

Molecule CNC(=S)N1CCN(CCCC(c2ccc(F)cc2)c2ccc(F)cc2)CC1 [IV, N'-Methyl-4-[4,4-(di-p-fluorophenyl)butyl]-1-piperazinecarbothioamide] has an ED50 ([1]; 0.5 h after administration) of 5.1 mg/kg, an ED50 [2, 13] of 2 mg/kg and an ED50 [3, 14] of 0.1 mg/kg. The ED50 [3, 15] was 0.1 mg/kg and the ED50 [4] was 1.4 mg/kg.

In the case of CCN(CC)CC(=O)Nc1c(C)cccc1C [Lidocain], the “change” value ([6]; 10^-7 M) is given as 20 ms.

For CN1CCN2c3ccccc3Cc3ccccc3C2C1 (stereo not drawn) [Mianserin], the “blockade of central 5HT receptors” value [7] is listed as “potent blockers”.

With CN1CC[C@]23c4c5ccc(O)c4O[C@H]2[C@@H](O)C=C[C@H]3[C@H]1C5 [Morphine] the “Inhibition, % (gastric ulcers)” value ([9]; pre-treatment dose 2.0 mg/kg) was 67%.

For CC(C)NCC(O)COc1cccc2ccccc12 (stereo not drawn) [Propranolol], the “protecting capacity” value [8] was “less effective” and the “Relative weight of thymus, ×100” value ([8]; pre-treatment dose 10.0 mg/kg) was 48.

For C=C[C@H]1C[N@@]2CC[C@H]1C[C@@H]2[C@@H](O)c1ccnc2ccc(OC)cc12 [Quinidine], the “change” value ([6]; 10^-6 M) is listed as 14 ms.
